# Measurements reported in patent US4394390A, “Nasal dosage forms of propranol” (University of Kentucky Research Foundation, priority 1980, dated 1983).
# Tests used:
# in vivo [1] = settings: rat
# [2] = Crossover study of propranolol plasma levels after nasal, intravenous and oral administration in dogs
# [3] = rat, in vivo
# in vivo [4] = settings: dog
# [5] = Bioavailability of propranolol from nasal solution vs oral and intravenous administration in rats (blood levels, AUC); settings: rat, FIG. 1
# [6] = cited from earlier work
smiles,measurement,setting,value
"CC(C)NCC(O)COc1cccc2ccccc12 (centres unmarked) [propranolol, 1-(isopropylamino)-3-(1-naphthyloxy)-2-propanol]",Tmax,in vivo [1],≤ 5 min
same,bioavailability at 4 h,in vivo [1]; Ratio (AUC nasal vs I.V.),99.6%
same,bioavailability at 4 h,"in vivo [1]; po, Ratio (AUC oral vs I.V.)",17.9%
same,bioavailability at 4 h,"in vivo [1]; po, oral bioavailability, AUC ratio (oral/I.V.)×100",~15%
same,plasma levels after intravenous and nasal administration compared,"[2]; dog, 20 mg, nasal vs I.V., FIG. 2",virtually identical
same,plasma levels after oral administration,"[2]; dog, 20 mg, oral compared with I.V. and nasal, FIG. 2",considerably lower plasma levels
same,absorption from the nasal mucosa into systemic blood,"[2]; nasal, conclusion from dog study and rat study",rapidly absorbed from the nasal mucosa into systemic blood without the first pass metabolism
same,dependence of area under the blood level curve on dose,[3],directly proportional to the dose
same,"oral bioavailability, AUC ratio (oral/nasal)×100",[3]; 240 min,about 15%
same,bioavailability at 8 h,in vivo [4]; AUC(Nasal)/AUC(I.V.),96.7%
same,bioavailability,in vivo [4]; bioavailability from the nasal route relative to the intravenous route,99.1%
same,bioavailability at 8 h,"in vivo [4]; po, AUC(P.O.)/AUC(I.V.)",8.9%
same,bioavailability,"in vivo [4]; po, bioavailability from the oral route relative to the intravenous route",7.4%
same,blood level after nasal administration compared with intravenous administration,[5]; nasal 1 mg vs I.V. 1 mg,identical to the blood level after intravenous administration
same,absorption from the nasal mucosa,[5]; nasal,very rapidly absorbed from the nasal mucosa
same,blood level after oral administration,"[5]; oral, same dosage level (1 mg), compared with nasal and I.V.",considerably lower blood levels
same,variation of plasma levels among subjects,"[6]; human, intravenous, 10 mg, same five subjects",varied only two fold
same,variation of peak plasma levels among subjects,"[6]; human, oral, 80 mg, five subjects",varied seven fold
same,bioavailability (ratio of AUC of 80 mg oral dose and 10 mg I.V. dose),"[6]; human, oral, lowest in some subjects",16%
same,absorption from oral dosage forms,[6]; oral dosage forms,inefficiently and variably absorbed from oral dosage forms
